What is called inhibition is how much of the control response was suppressed.

The structures appear in SMILES notation.

For the assay, the target named is Aβ42 peptide (Homo sapiens, UniProt P05067). Briefly: ThT fluorescence assay for inhibition of Aβ42 fibrillation. The class given is biochemical.
Chain of Aβ42 peptide (P05067 672-713): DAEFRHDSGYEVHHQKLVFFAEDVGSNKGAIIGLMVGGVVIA

In the case of `O=[N+]([O-])c1ccc(/N=N/c2ccc3nc(-c4ccccc4)c(I)c(-c4ccccc4)c3c2)cc1` [Compound 1d, (E)-3-Iodo-6-((4-nitrophenyl)diazenyl)-2,4-diphenylquinoline], the “% inhibition for Aβ aggregation” value (Aβ42 25 μM, compounds 25 μM, PBS, 37 °C, 24 h) is recorded as 75.2 ± 3.0%. In addition, under “read-out: % inhibition for Aβ aggregation, Aβ42 25 μM, compounds 25 μM, PBS, 37 °C, 24 h”, the inhibition at 25 µM was around 75%.
